Experimental data: patent US20100310574A1, “METHODS AND COMPOSITIONS FOR THE TREATMENT AND DIAGNOSIS OF STATIN-INDUCED MYOPATHY” (Beth Israel Deaconess Medical Center, priority 2007, published 2010)
“Also recorded” adds a separate entry of the source.

Columns and labels:
[1] = before withdrawal in August 2001; cited from earlier work
[2] = Clinical data (CK) of statin-treated patients who gave muscle biopsies; format: in vivo, human; conditions: patient with muscle pain/damage concomitantly treated with the statin; one patient per line
Experimental: The atrogin-1 mRNA levels were measured in 17 human quadriceps muscle biopsies from five patients undergoing knee replacements (controls), from four patients with muscle pain but not being treated with statins, and from eight patients with muscle pain/damage concomitantly being treated with statins (the table below).
Muscle biopsies: Muscle was obtained from three groups of patients whose characteristics are detailed in the above table. The statin-treated group included four subjects with statin-induced myopathy and 4 with statin-induced rhabdomyolysis, as commonly defined (Antons et al., Am. J. Med. 119:400-409, 2006). The non-statin myopathy group included four statin-naïve subjects with undefined myopathy. Both of these groups underwent percutaneous muscle biopsies of the vastus lateralis muscle using a Bergstrom needle. The control group included five statin-naïve subjects who volunteered muscle at the time of knee arthroplasty. Muscle from subjects in all three groups was snap frozen in liquid nitrogen for subsequent analysis. All subjects signed an IRB-approved consent form.

[3] = system: differentiated C2C12 mouse myocytes; experiment: C2C12 myotube morphology and diameter; format: cell-based
Description: The effect of statins on muscle cells was studied by treating differentiated C2C12 mouse myocytes with various concentrations of lovastatin. […] The reduction of myotube size was quantitated by measurement of myotube thickness. This effect was clearly visible at low lovastatin concentrations, in the range of those typically found in patients administered with this medication (Pan et al., J. Clin. Pharmacol. 30:797-801, 2002, and Hostein et al., Cancer Chemother. Pharmacol. 57:155-164, 2006).
Cell Culture: Mouse myoblast cell line C2C12 was purchased from ATCC (ATCC, Manassas, Va.) and maintained in DMEM (Mediatech, Herndon, Va.) containing 10% fetal bovine serum (Hyclone, Logan, Utah) and penicillin (100U) and streptomycin (50 ug/ml; Invitrogen, Grand Island, N.Y.). When C2C12 cells reach to 90% confluence, medium was replaced with differentiation medium of DMEM supplemented with 2% horse serum (ATCC, Manassas, Va.) to induce myotube formation. Cells were used for experiments in 4-5 days after differentiation. Lovastatin (>98% purity) (mevinolin; Sigma, St. Louis, Mo.) was prepared as a 50 mM stock solution in DMSO as reagent vehicle, further diluted in DMSO, and added into the medium. The final volume DMSO in medium is not more than 0.125%, which there is not obvious cytotoxicity. Equal volume of reagent vehicle was used for all experiments and reagent vehicle only serviced as controls. Each experiment was performed at least three times.
(§1) Myotube Fiber Size: Size was quantified by measuring a total of 200 tube diameters as described by Sandri et al. (supra). Briefly, muscle fiber size from four random fields at 100 magnification was measured using IMAGE software (Scion, Frederick, Md.). All data were expressed in Mean±S.E.M. Comparisons were made by using the Student's T-test, with p<0.05 being considered statistically significant.

atrogin-1 mRNA = experiment: Atrogin-1 mRNA in C2C12 myocytes by real time PCR; format: cell-based, mouse; conditions: 10 μM
Experimental: Quantitative PCR: Atrogin-1 mRNA levels were determined by real-time PCR using the Applied Biosystems® 7500 real-time PCR analyzer according to the method recently described by others (Okuno et al., Blood 100:4420-4426, 2002, and Yang et al., J. Cell Biochem. 94:1058-1067, 2005). Multiplexed amplification reactions were performed using 18S rRNA as an endogenous control (18S rRNA primers/VIC-labeled probe Applied Biosystems #4310893E) using the TaqMan One Step PCR Master Mix reagents Kit (#4309169, Applied Biosystems). The following settings were used: Stage 1 (reverse transcription): 48° C. for 30 min; Stage 2 (denaturation): 95° C. for 10 min; and Stage 3 (PCR): 95° C. for 15 sec and 60° C. for 60 sec for 40 cycles. […] Fluorescence data were analyzed by SDS1.7 software (Applied Biosykems). […] All RNA samples were analyzed in triplicate, with the mean value used in subsequent analyses.
Cell Culture: Mouse myoblast cell line C2C12 was purchased from ATCC (ATCC, Manassas, Va.) and maintained in DMEM (Mediatech, Herndon, Va.) containing 10% fetal bovine serum (Hyclone, Logan, Utah) and penicillin (100U) and streptomycin (50 ug/ml; Invitrogen, Grand Island, N.Y.). […]
Quantitative PCR: Performed as described above.

atrogin-1 protein = experiment: Atrogin-1 protein in C2C12 myotubes by Western blotting; format: cell-based, mouse; conditions: vs non-treated control cells
Experimental: Western Blotting Cultured cells after treatment were collected at specific times and solubilized in RIPA lysis buffer (50 mM Tris-HCl, pH 7.4; 150 mM NaCl, 1% NP-40, 0.5% sodium deoxycholate, 0.1% SDS (Boston Bioproducts, Boston Mass.), protease (Roche) and phosphatase (Sigma) inhibitor cocktail). […]

C2C12 myotubes = experiment: Proteolytic rate in C2C12 myotubes (3H-tyrosine release); format: cell-based, mouse; conditions: compared with control cultures
Experimental: Measurement of Proteolytic Rate: Differentiated C2C12 myotubes were incubated with ^3H-tyrosine (5 μCi/mL media) for 20 hours to label cell proteins, and switched to medium containing 2 mM unlabeled tyrosine, vehicle, lovastatin, or dexamethasone for another 20 hours. After media replacement, an aliquot of medium was collected once per hour for 4 hours. The collected media was treated with TCA (10% w/v final concentration) to precipitate protein. Since the high concentration of unlabeled tyrosine in the media prevents re-incorporation of ^3H-tyrosine into new protein, the radioactivity in the supernatant represent degraded protein from the pool of prelabeled, intracellular, long-lived proteins. Proteolytic rate was defined as the percentage of released radioactivity per hour calculated from the period of 20 hours to 24 hours of lovastatin or dexamethasone treatment, when ^3H-tyrosine release is linear over time. These rates were compared with proteolytic rates in parallel cultures treated with vehicle alone. All measurements were done in triplicate and then independently repeated at least twice.

[4] = system: atrogin-1 wildtype primary myotubes; experiment: Myotube size, wildtype primary mouse myotubes; format: cell-based; conditions: control (wildtype) cultures, two days of exposure
atrogin-1 (−/−) myotubes = experiment: Myotube size, atrogin-1 (-/-) primary mouse myotubes; format: cell-based; conditions: 0.25 and 1.0 μM
Experimental: as §1
Cell Culture: Primary mouse myoblasts from atrogin-1 null mice (Regeneron, Tarrytown N.Y.) were isolated as follows: muscle was removed from the hind limbs of two-week old mice. After treatment with 0.1% collagenase D and Dispase II (Roche, Indianapolis, Ind.), the isolated cells were plated on collagen (Type I, Roche, Indianapolis, Ind.)-coated dishes. Myoblasts were subsequently enriched and cultured in F-10 nutrient medium with 20% fetal calf serum and 2.5 ng/ml bFGF (Invitrogen, Grand Island, N.Y.). Myotubes were induced in differentiation medium. All media contained 1× Primocin (InvivoGen, San Diego, Calif.). The cultures were maintained at 37° C., under 5% and 8% CO2 humidified air atmosphere for myoblasts and myotubes, respectively. Cultures were ready to use in assays on day 2 in differentiation medium when the myotubes had formed and were contracting.

Zebrafish embryos = experiment: Zebrafish embryo muscle fiber damage (myosin heavy chain staining); format: in vivo, Danio rerio
Experimental: Zebrafish embryos were treated with lovastatin from 20 hpf to 32 hpf at different concentrations (0-5 μM).
(§2) Zebrafish lines and maintenance: Adult zebrafish (Danio rerio) were maintained as described under standard laboratory conditions at 28.5° C. in a 14 h light/10 h dark cycle (Westerfield, “The zebrafish book: a guide for the laboratory use of zebrafish Danio (Brachydanio) rerio,” Institute of Neuroscience, University of Oregon, Eugene, Oreg., 1993). Developmental stages were determined by embryo morphology and hours post fertilization (hpf) (Kimmel et al., Dev. Dyn. 203:253-310, 1995). To examine the effects of statin, the embryos at 20-24 hpf were immersed in the embryonic water ([…], 170 μM KCl, 330 μM CaCl2, and 330 μM MgSO4) at a concentration of 0.005-10 μM lovastatin (Mevinolin; Sigma, St. Louis, Mo.) including 0.003% 1-phenyl-2-thiourea (Sigma) to inhibit pigmentation in 24 well plate. After 32 hpf, the embryos were fixed by 4% paraformaldehyde in PBS.
Antibody staining: Whole zebrafish staining: Zebrafish embryos were fixed by 4% paraformaldehyde in PBS overnight. After fixation, the embryos were washed by PBS, stored for at least 1 h at −20° C. in methanol, and permeabilized for 30 min at −20° C. in acetone. Embryos were incubated with blocking buffer (1% BSA, 0.1% Tween-20 in PBS), and incubated with diluted primary antibody, anti-slow twitch myosin F59 (1: 200; Developmental Studies Hybridoma Bank (DSHB), Department of Biological Sciences, University of Iowa, Iowa City, Iowa 52242) (Crow and Stockdale, Dev. Biol. 118:333-342, 1986; and Devoto et al., Development 122:3371-3380, 1996) in blocking solution for overnight at 4° C. Staining was detected by using goat anti-mouse TRITC secondary antibody (1:200; Southern Biotechnology Associates, Inc.) in blocking solution for 4 h at RT (Birely et al., Dev. Biol. 280:162-176, 2005). Cross-sectional staining: Embryos were fixed overnight in 4% paraformaldehyde (PFA) and cryoprotected by the overnight incubation with increasing concentrations of sucrose (up to 30%). Samples were embedded in OCT compound and then equilibrated to −80° C. Sections (10 μm thick) were collected on SuperFrost/Plus slides and dried. Sections were rehydrated in PBS and blocked for 1 h in blocking buffer (1% BSA, 0.1% Tween in PBS). Sections were incubated overnight at 4° C. with primary antibody diluted in blocking buffer. Sections were stained with antibody as above.

zebrafish atrogin-1 = experiment: Atrogin-1 mRNA and protein expression in zebrafish embryos; format: in vivo, Danio rerio; conditions: lovastatin treatment
Experimental: as §2
Western blotting: Zebrafish embryos were homogenized in SDS sample buffer (30 embryos/30 μl of sample buffer) with microfuge pestle until the lysate became uniform in consistency and there was no longer stringy inside. The lysate was boiled for 5 minutes and centrifuged supernatant was processed for Western blotting (Hanai et al., J. Cell Biol. 158:529-539, 2002).

[5] = system: phosphor-Akt, phosphor-FoxO3, and phosphor-p70S6K; experiment: Phosphorylated Akt/FoxO3/p70S6K in C2C12 myotubes (immunoblot); format: cell-based, mouse; conditions: 1, 2.5 or 5 μM, 24 hours
Experimental: Western Blotting Cultured cells after treatment were collected at specific times and solubilized in RIPA lysis buffer (50 mM Tris-HCl, pH 7.4; 150 mM NaCl, 1% NP-40, 0.5% sodium deoxycholate, 0.1% SDS (Boston Bioproducts, Boston Mass.), protease (Roche) and phosphatase (Sigma) inhibitor cocktail). Proteins were separated by SDS-PAGE, transferred to PVDF membranes and visualized by Western blotting using alkaline phosphatase-based CDP-star chemiluminescent detection according to manufacturer's protocol (Applied Biosystems, Bedford, Mass.).
(§3) The effect of lovastatin on FoxO-dependent activation of the atrogin-1 promoter in zebrafish embryos was also examined. Embryos were injected with a proximal fragment of the atrogin-1 promoter linked to luciferase or the same fragment with the FoxO site mutated (Sandri et al., Cell 117:399-412, 2004). Lovastatin (0.5 μM) stimulated the reporter luciferase activity more than 7-fold, while stimulating the FoxO-less reporter only 3-fold (FIG. 14B). […] Since lovastatin treatment still lead to a small amount of luciferase activity even in the absence of FoxO binding sites in the atrogin-1 promoter-reporter, additional signaling pathways may also be important in mediating the effects of statins on atrogin-1 expression in muscle.

atrogin-1 promoter = experiment: Atrogin-1 promoter luciferase reporter in zebrafish embryos; format: in vivo, Danio rerio; conditions: 0.5 μM
Experimental: as §3

functional mitochondria = experiment: MitoTracker staining and FACS of cells from zebrafish embryos; format: in vivo, Danio rerio; conditions: lovastatin 0.5 or 1.0 μM
Experimental: Mitochondrial staining and FACS analysis: Embryos were treated with lovastatin (0, 0.5, 1.0 μM at 20-32 hpf) or treated with the combination of lovastatin (0.5 μM) following PGC-1α (or vehicle) cDNA injection (100 pg/embryo at the one-cell stage). 1-Phenyl-2-thiourea (0.003%; Sigma) was added at 20 hpf. After phenotypes were observed, 100 embryos from each condition were decholionated by protease and homogenized for 3-5 minutes in 0.9× phosphate buffered saline (PBS)/10% fetal bovine serum (FBS), then centrifuged at 3000 rpm for 5 minutes, digested with trypsin/EDTA and dispersed at room temperature. After adding 1 mL of 0.9×PBS/10% FBS, the dispersed cells were filtered ([…]) and washed twice with 0.9×PBS/10% FBS. The cells were incubated in 100 nM MitoTracker Red CMXRos (Invitrogen) in 0.9×PBS/10% FBS for 15 minutes in the dark. The cells were washed twice in 0.9×PBS/10% FBS and subjected to […] (FACS) analysis. EPICS XL (Beckman Coulter) was used for the fluorescence detection (absorption wavelength: 578 nm; emission wavelength: 599 nm) and data was analyzed with Expo32ADC software. Ten thousand cells were counted for each treatment condition.

## COCc1c(C(C)C)nc(C(C)C)c(/C=C/[C@@H](O)C[C@@H](O)CC(=O)O)c1-c1ccc(F)cc1 [cerivastatin]
[1]
  rhabdomyolysis-related deaths: approximately 100

## CC(C)c1c(C(=O)Nc2ccccc2)c(-c2ccccc2)c(-c2ccc(F)cc2)n1CC[C@@H](O)C[C@@H](O)CC(=O)O [atorvastatin]
[2]
  CK (clinical data): Muscle pain and weakness, CK 47; also recorded: Muscle pain and weakness, CK 73

## CC[C@H](C)C(=O)O[C@H]1C[C@@H](C)C=C2C=C[C@H](C)[C@H](CC[C@@H]3C[C@@H](O)CC(=O)O3)[C@H]21 [lovastatin]
[2]
  CK (clinical data): Weakness, CK 932
[3]; by 5 days
  loss of myotubes: almost complete loss of myotubes
[3]; increasing concentrations (0-10 μM) vs vehicle
  myotube morphology / thickness: myotubes became progressively thinner
[3]; myotube cultures
  treatment time after which morphological changes were visible: 24 hours
atrogin-1 mRNA; 6 hours
  atrogin-1 mRNA: significantly increased
atrogin-1 mRNA; 36 hours
  atrogin-1 mRNA induction: ≤ 6 fold
atrogin-1 protein; 1.0 μM, 48 hours
  atrogin-1 induction (protein): about 1.5 fold
atrogin-1 protein; 10 μM
  atrogin-1 induction (protein): about 2.5 fold
C2C12 myotubes
  increase in the rate of bulk muscle proteolysis: 5-10%
[4]
  decrease of tube diameter: ≤ 50%
atrogin-1 (−/−) myotubes
  change in myotube size: Little change in myotube size
Zebrafish embryos; 0-5 μM, 20 hpf to 32 hpf
  muscle phenotype: clear dose-dependent muscle phenotypes
Zebrafish embryos; 0.05 μM
  embryos with class 1 defects: more than 50%
Zebrafish embryos; 5 μM
  embryos with class 3 changes: over 60%
Zebrafish embryos; 20 hpf to 32 hpf
  concentration giving class 1 changes (bowing, gap formation, fiber disruption): 25 to 50 nM
  concentration giving class 2 changes (fiber thinning, attenuated MHC staining): 50 to 500 nM
  concentration giving class 3 changes (irregular somite boundaries): 1000 to 5000 nM
Zebrafish atrogin-1
  zebrafish atrogin-1 mRNA and protein level: clearly and dose-dependently elevated
[5]
  phosphorylated signaling intermediates: dose-dependent reduction
atrogin-1 promoter; FoxO-less (FoxO site mutated) reporter
  stimulation of reporter luciferase activity: 3 fold
atrogin-1 promoter; atrogin-1 promoter fragment with FoxO site
  stimulation of reporter luciferase activity: more than 7 fold
Functional mitochondria
  MitoTracker fluorescence intensity: shifted to the left

## CCC(C)(C)C(=O)O[C@H]1C[C@@H](C)C=C2C=C[C@H](C)[C@H](CC[C@@H]3C[C@@H](O)CC(=O)O3)[C@H]21 [simvastatin]
[2]
  CK (clinical data): Weakness, CK 51,080; also recorded: Weakness, CK 8,264; also recorded: Weakness, CK 39,000; also recorded: Muscle pain and weakness, CK 62; also recorded: Muscle pain and weakness, CK 649
